In patent US20240343722A1 (VIFOR (INTERNATIONAL) AG, priority 2021, published 2024):

Target: T1, ferroportin (Fpn) (Mus musculus, UniProt Q9JHI9)
T1 construct: endogenous in cells; host or cells: J774 mouse macrophage cell line, induced with Fe(III)NTA
T1 sequence (Q9JHI9 1-570): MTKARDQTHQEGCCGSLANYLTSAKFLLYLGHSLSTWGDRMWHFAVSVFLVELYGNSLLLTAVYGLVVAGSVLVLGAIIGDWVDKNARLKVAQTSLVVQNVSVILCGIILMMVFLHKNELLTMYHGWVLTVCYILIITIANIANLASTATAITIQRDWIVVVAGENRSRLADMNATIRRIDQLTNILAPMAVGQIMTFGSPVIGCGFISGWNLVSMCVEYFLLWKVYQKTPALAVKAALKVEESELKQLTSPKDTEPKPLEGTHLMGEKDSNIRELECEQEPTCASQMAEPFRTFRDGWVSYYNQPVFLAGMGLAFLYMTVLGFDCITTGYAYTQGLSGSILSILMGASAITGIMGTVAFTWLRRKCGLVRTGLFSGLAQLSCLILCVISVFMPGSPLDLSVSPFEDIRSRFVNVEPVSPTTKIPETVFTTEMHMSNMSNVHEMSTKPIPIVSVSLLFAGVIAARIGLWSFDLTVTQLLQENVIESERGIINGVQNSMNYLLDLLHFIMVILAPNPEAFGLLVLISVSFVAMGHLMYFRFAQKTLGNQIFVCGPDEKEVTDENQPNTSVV
Assay: Hepcidin Internalization Assay (J774)
Assay type: cell-based
Conditions: Average (AVE) IC50 of multiple measurements; inhibition of TMR-hepcidin (25 nM) internalization into J774 cells
Text: This cellular assay allows quantification of the binding of hepcidin to ferroportin (Fpn) through microscopic detection of internalization of a fluorescently labeled hepcidin into J774 cells. […] Binding of hepcidin to Fpn triggers internalization and degradation of both hepcidin and Fpn. […] Therefore, microscopic detection of cell-associated TMR fluorescence is a measure of hepcidin binding to Fpn and internalization of hepcidin and Fpn. If TMR-hepcidin is prevented from binding to Fpn, cellular TMR fluorescence remains low (Durrenberger et al, 2013). The effect of small molecular weight Fpn inhibitor compounds in this assay was evaluated in vitro as described below. […] After removal of the paraformaldehyde solution, cells were washed 3 times with PBS leaving 100 μl per well and the plates were sealed with foil plate seal. TMR (530-550 nm excitation/575-625 nm emission/400 ms exposure time) and Hoechst 33342 (360-370 nm excitation/420-460 nm emission /10 ms exposure time) fluorescence images were acquired using a […] imager (Olympus) with a 20× high NA objective. […] The acquired image data was analysed with the […] analysis software. […] IC50 values were calculated with the Sum(Mean) raw data using “log(inhibitor) vs. response” curve fitting of Prism 5 software (GraphPad Software Inc., version 5.02). For each data set the fit of the “log(inhibitor) vs. response (three parameters)” model was compared to the fit of the “log(inhibitor) vs. response - Variable slope (four parameters)” model and the IC50 data of the preferred model was used.

IC50 [nM] | Structure (SMILES)
0.8 | COc1cccc(CCn2c(CCNCCc3nc(C(=O)NCc4ncccc4F)co3)nc3ccccc32)c1 [Example 45, N-((3-fluoropyridin-2-yl)methyl)-2-(2-((2-(1-(3-methoxyphenethyl)-1 H-benzo[d]imidazol-2-yl)ethyl)amino)ethyl)oxazole-4-carboxamide]
1 | CCCCn1c(CCNCCc2nc(C(=O)NCc3ncccc3OC)co2)nc2ccccc21 [Example 46, 2-(2-((2-(1-butyl-1 H-benzo[d]imidazol-2-yl)ethyl)amino)ethyl)-N-((3-methoxypyridin-2-yl)methyl)oxazole-4-carboxamide]
8 | CCCCn1c(CCNCCc2nc(C(=O)NCc3ncccc3C(F)(F)F)co2)nc2ccccc21 [Example 47, 2-(2-((2-(1-butyl-1 H-benzo[d]imidazol-2-yl)ethyl)amino)ethyl)-N-((3-(trifluoromethyl)pyridin-2-yl)methyl)oxazole-4-carboxamide]
2 | COCCOCCn1c(CCNCCc2nc(C(=O)NCc3ncccc3F)co2)nc2ccccc21 [Example 48, N-((3-fluoropyridin-2-yl)methyl)-2-(2-((2-(1-(2-(2-methoxyethoxy)ethyl)-1 H-benzo[d]imidazol-2-yl)ethyl)amino)ethyl)oxazole-4-carboxamide]
3300 | CCCCn1c(C2CCN(CCc3nc(C(=O)NCc4ncccc4F)co3)CC2)nc2ccccc21 [Example 49, 2-(2-(4-(1-butyl-1 H-benzo[d]imidazol-2-yl)piperidin-1-yl)ethyl)-N-((3-fluoropyridin-2-yl)methyl)oxazole-4-carboxamide]
0.8 | O=C(NCc1ncccc1F)c1coc(CCNCCc2nc3ccccc3n2CC2CC2)n1 [Example 50, 2-(2-((2-(1-(Cyclopropylmethyl)-1 H-benzo[d]imidazol-2-yl)ethyl)amino)ethyl)-N-((3-fluoropyridin-2-yl)methyl)oxazole-4-carboxamide]
0.8 | O=C(NCc1ncccc1F)c1coc(CCNCCc2nc3ccccc3n2CC2CCCCC2)n1 [Example 51, 2-(2-((2-(1-(cyclohexylmethyl)-1H-benzo[d]imidazol-2-yl)ethyl)amino)ethyl)-N-((3-fluoropyridin-2-yl)methyl)oxazole-4-carboxamide]
625 | CCCCn1c(CC(C)(C)NCCc2nc(C(=O)NCc3ncccc3F)co2)nc2ccccc21 [Example 52, 2-(2-((1-(1-butyl-1 H-benzo[d]imidazol-2-yl)-2-methylpropan-2-yl)amino)ethyl)-N-((3-fluoropyridin-Z-yl)methyl)oxazole-4-carboxamide]
5 | O=C(NCc1ncccc1F)c1coc(CCNCCc2nc3ccccc3n2CC(F)F)n1 [Example 53, 2-(2-((2-(1-(2,2-difluoroethyl)-1H-benzo[d]imidazol-2-yl)ethyl)amino)ethyl)-N-((3-fluoropyridin-2-yl)methyl)oxazole-4-carboxamide]
0.9 | O=C(NCc1ncccc1F)c1coc(CCNCCc2nc3ccccc3n2Cc2ccccc2Cl)n1 [Example 54, 2-(2-((2-(1-(2-chlorobenzyl)-1H-benzo[d]imidazol-2-yl)ethyl)amino)ethyl)-N-((3-fluoropyridin-2-yl)methyl)oxazole-4-carboxamide]
1.4 | O=C(NCc1ncccc1F)c1coc(CCNCCc2nc3ccccc3n2-c2ccccc2)n1 [Example 55, N-((3-fluoropyridin-2-yl)methyl)-2-(2-((2-(1-phenyl-1 H-benzo[d]imidazol-2-yl)ethyl)amino)ethyl)oxazole-4-carboxamide]
9 | CN(C)CCn1c(CCNCCc2nc(C(=O)NCc3ncccc3F)co2)nc2ccccc21 [Example 56, 2-(2-((2-(1-(2-(dimethylamino)ethyl)-1 H-benzo[d]imidazol-2-yl)ethyl)amino)ethyl)-N-((3-fluoropyridin-2-yl)methyl)oxazole-4-carboxamide]
1.4 | CC(C)OCCn1c(CCNCCc2nc(C(=O)NCc3ncccc3F)co2)nc2ccccc21 [Example 57, N-((3-fluoropyridin-2-yl)methyl)-2-(2-((2-(1-(2-isopropoxyethyl)-1 H-benzo[d]imidazol-2-yl)ethyl)amino)ethyl)oxazole-4-carboxamide]
0.8 | O=C(NCc1ncccc1F)c1coc(CCNCCc2nc3ccccc3n2Cc2ccc(Cl)cc2)n1 [Example 58, 2-(2-((2-(1-(4-chlorobenzyl)-1H-benzo[d]imidazol-2-yl)ethyl)amino)ethyl)-N-((3-fluoropyridin-2-yl)methyl)oxazole-4-carboxamide]
355 | CCCCn1c(C(C)(C)CNCCc2nc(C(=O)NCc3ncccc3F)co2)nc2ccccc21 [Example 60, 2-(2-((2-(1-butyl-1 H-benzo[d]imidazol-2-yl)-2-methylpropyl)amino)ethyl)-N-((3-fluoropyridin-2-yl)methyl)oxazole-4-carboxamide]
1430 | CCCCn1c(C2(CNCCc3nc(C(=O)NCc4ncccc4F)co3)CCCCC2)nc2ccccc21 [Example 61, 2-(2-(((1-(1-butyl-1H-benzo[d]imidazol-2-yl)cyclohexyl)methyl)amino)ethyl)-N-((3-fluoropyridin-2-yl)methyl)oxazole-4-carboxamide]
8.5 | O=C(NCc1ncccc1F)c1coc(CCNCCc2nc3ccccc3n2Cc2ccncn2)n1 [Example 62, N-((3-fluoropyridin-2-yl)methyl)-2-(2-((2-(1-(pyrimidin-4-ylmethyl)-1 H-benzo[d]imidazol-2-yl)ethyl)amino)ethyl)oxazole-4-carboxamide]
0.8 | COc1cccc(-n2c(CCNCCc3nc(C(=O)NCc4ncccc4F)co3)nc3ccccc32)c1 [Example 63, N-((3-fluoropyridin-2-yl)methyl)-2-(2-((2-(1-(3-methoxyphenyl)-1H-benzo[d]imidazol-2-yl)ethyl)amino)ethyl)oxazole-4-carboxamide]
1.3 | O=C(NCc1ncccc1F)c1coc(CCNCCc2nc3ccccc3n2-c2cccc(Cl)c2)n1 [Example 64, 2-(2-((2-(1-(3-chlorophenyl)-1 H-benzo[d]imidazol-2-yl)ethyl)amino)ethyl)-N-((3-fluoropyridin-2-yl)methyl)oxazole-4-carboxamide]
1.2 | O=C(NCc1ncccc1F)c1coc(CCNCCc2nc3cc4c(cc3n2CC2CC2)OCCO4)n1 [Example 65]
5 | COCCOCCn1c(CCNCCc2nc(C(=O)NCc3ncccc3OC)co2)nc2cc3c(cc21)OCCO3 [Example 66, 2-(2-((2-(1-(2-(2-methoxyethoxy)ethyl)-6,7-dihydro-1 H-[1,4]dioxino[2′,3′:4,5]benzo[1,2-d]imidazol-2-yl)ethyl)amino)ethyl)-N-((3-methoxypyridin-2-yl)methyl)oxazole-4-carboxamide]
4.3 | COCCn1c(CCNCCc2nc(C(=O)NCc3ncccc3OC)co2)nc2cc3c(cc21)OCCO3 [Example 67, 2-(2-((2-(1-(2-methoxyethyl)-6,7-dihydro-1H-[1,4]dioxino[2′,3′:4,5]benzo[1,2-d]imidazol-2-yl)ethyl)amino)ethyl)-N-((3-methoxypyridin-2-yl)methyl)oxazole-4-carboxamide]
7 | COc1cccnc1CNC(=O)c1coc(CCNCCc2nc3cc4c(cc3n2CC(F)F)OCCO4)n1 [Example 68, 2-(2-((2-(1-(2,2-difluoroethyl)-6,7-dihydro-1 H-[1,4]dioxino[2′,3′:4,5]benzo[1,2-d]imidazol-2-yl)ethyl)amino)ethyl)-N-((3-methoxypyridin-2-yl)methyl)oxazole-4-carboxamide]
3 | COCCn1c(CCNCCc2nc(C(=O)NCc3ncccc3F)co2)nc2cc3c(cc21)OCO3 [Example 69, N-((3-fluoropyridin-2-yl)methyl)-2-(2-((2-(5-(2-methoxyethyl)-5H-[1,3]dioxolo[4′,5′:4,5]benzo[1,2-d]imidazol-6-yl)ethyl)amino)ethyl)oxazole-4-carboxamide]
3.9 | COCCn1c(CCNCCc2nc(C(=O)NCc3ncccc3OC)co2)nc2cc3c(cc21)OCO3 [Example 70, 2-(2-((2-(5-(2-methoxyethyl)-5H-[1,3]dioxolo[4′,5′:4,5]benzo[1,2-d]imidazol-6-yl)ethyl)amino)ethyl)-N-((3-methoxypyridin-2-yl)methyl)oxazole-4-carboxamide]
